Tests used:
Assay type in all cases: physicochemical
[1] = Visual appearance on storage (Example 3)
Description: (§1) Each test material was stored between 2-8*C prior to placing on stability. Each material was sub-divided into 900 mg aliquots, transferred to brown opaque HDPE plastic bottles and flushed with Argon prior to sealing. Sufficient samples were provided for each time point as well as spares for each storage condition. The samples were placed in appropriate incubators previously commissioned at storage conditions 25° C./60% RH, 40° C./75% RH and 60° C.
The samples were stored for analysis according to the following table: […]

[2] = Water content by Karl Fisher analysis on storage (Example 3)
Description: Water content (% w/w) by Karl Fisher analysis
as §1
Water Content by Karl Fisher Analysis
Water content was determined in duplicate on an aliquot of equilibrated material (approximately 100 mg) using a Tritrino 720 KFS Titrator.

[3] = Stability indicating HPLC assay and related substances on storage (Example 3)
Description: Assay (% w/w) and related substances determination
as §1
Testing Procedures Test for Identity Content and Impurities
Testing was performed in duplicate (2×25 mg) in accordance with a stability indicating HPLC assay method. The assay results were reported as M6G as is, M6G as the anhydrous, solvent free material and the anhydrous solvent free material corrected for the salt form using the relevant conversion factor.

[4] = Colour of solution by visible spectrophotometry on storage (Example 3); conditions: 5% w/v solution in water
Description: Colour of solution by UV spectrophotometry.
as §1
Colour by Visible Spectrophotometry
A 5% w/v solution of test material was prepared in water and the absorbance measured at 420 nm in a 1 cm silica cell using a Unicam UV4 Visible/UV spectrophotometer.

In the case of `CN1CCC23c4c5ccc(O)c4OC2C(OC2OC(C(=O)O)C(O)C(O)C2O)C=CC3C1C5.CN1CCC23c4c5ccc(O)c4OC2C(OC2OC(C(=O)O)C(O)C(O)C2O)C=CC3C1C5.O=C(O)C=CC(=O)O` (stereo not drawn) [Morphine-6-glucuronide fumarate], the Appearance ([1]; 1 month, 25° C./60% RH) is reported as “White crystalline powder”, the Appearance ([1]; 1 month, 40° C./75% RH) is reported as “Pale yellow crystalline powder” and the Appearance ([1]; 1 month, 60° C.) is reported as “Yellow crystalline powder”. The Appearance ([1]; 3 months, 25° C./60% RH) was “Pale yellow crystalline powder”, the Appearance ([1]; 3 months, 40° C./75% RH) was “Yellow crystalline powder” and the Appearance ([1]; Initial) was “White crystalline powder”. It also gave a Moisture ([2]; 1 month, 25° C./60% RH) of 7.26 % w/w, a Moisture ([2]; 1 month, 40° C./75% RH) of 7.94 % w/w and a Moisture ([2]; 1 month, 60° C.) of 5.98 % w/w. It also gave a Moisture ([2]; 3 months, 25° C./60% RH) of 8.00 % w/w, a Moisture ([2]; 3 months, 40° C./75% RH) of 10.89 % w/w and a Moisture ([2]; Initial) of 6.80 % w/w. The “Known Related Substances HN33177” value ([3]; 1 month, 25° C./60% RH) was 0.80%, the “Known Related Substances HN75083” value ([3]; 1 month, 25° C./60% RH) was 0.03% and the “M6G Assay, Anhydrous basis” value ([3]; 1 month, 25° C./60% RH) was 88.23 % w/w. For the same compound, the “M6G Assay, As is basis” value ([3]; 1 month, 25° C./60% RH) was 81.96 % w/w, the “M6G Assay, Corrected for the salt form” value ([3]; 1 month, 25° C./60% RH) was 99.32 % w/w and the “Total Known” value ([3]; 1 month, 25° C./60% RH) was 0.83%. For the same compound, the “Total Related Substances” value ([3]; 1 month, 25° C./60% RH) was 0.91%, the “Total Unknown” value ([3]; 1 month, 25° C./60% RH) was 0.08% and the “Known Related Substances HN33177” value ([3]; 1 month, 40° C./75% RH) was 0.70%. The “Known Related Substances HN67003” value ([3]; 1 month, 40° C./75% RH) was 0.58%, the “Known Related Substances HN75076” value ([3]; 1 month, 40° C./75% RH) was 0.03% and the “Known Related Substances HN75083” value ([3]; 1 month, 40° C./75% RH) was 0.02%. The “Known Related Substances Morphine” value ([3]; 1 month, 40° C./75% RH) was 0.10%, the “M6G Assay, Anhydrous basis” value ([3]; 1 month, 40° C./75% RH) was 84.17 % w/w and the “M6G Assay, As is basis” value ([3]; 1 month, 40° C./75% RH) was 77.62 % w/w. The “M6G Assay, Corrected for the salt form” value ([3]; 1 month, 40° C./75% RH) was 94.76 % w/w, the “Total Known” value ([3]; 1 month, 40° C./75% RH) was 1.43% and the “Total Related Substances” value ([3]; 1 month, 40° C./75% RH) was 2.60%. The “Total Unknown” value ([3]; 1 month, 40° C./75% RH) was 1.17%, the “Known Related Substances HN33177” value ([3]; 1 month, 60° C.) was 0.62% and the “Known Related Substances HN67003” value ([3]; 1 month, 60° C.) was 0.97%. For the same compound, the “Known Related Substances HN75076” value ([3]; 1 month, 60° C.) was 0.06%, the “Known Related Substances HN75083” value ([3]; 1 month, 60° C.) was 0.02% and the “Known Related Substances Morphine” value ([3]; 1 month, 60° C.) was 0.24%. For the same compound, the “M6G Assay, Anhydrous basis” value ([3]; 1 month, 60° C.) was 82.11 % w/w, the “M6G Assay, As is basis” value ([3]; 1 month, 60° C.) was 77.33 % w/w and the “M6G Assay, Corrected for the salt form” value ([3]; 1 month, 60° C.) was 92.44 % w/w. For the same compound, the “Total Known” value ([3]; 1 month, 60° C.) was 1.91%, the “Total Related Substances” value ([3]; 1 month, 60° C.) was 3.85% and the “Total Unknown” value ([3]; 1 month, 60° C.) was 1.94%. The “Known Related Substances HN33177” value ([3]; 3 months, 25° C./60% RH) was 0.75%, the “Known Related Substances HN67003” value ([3]; 3 months, 25° C./60% RH) was 0.26% and the “Known Related Substances HN75083” value ([3]; 3 months, 25° C./60% RH) was 0.10%. The “Known Related Substances Morphine” value ([3]; 3 months, 25° C./60% RH) was 0.07%, the “M6G Assay, Anhydrous basis” value ([3]; 3 months, 25° C./60% RH) was 87.15 % w/w and the “M6G Assay, As is basis” value ([3]; 3 months, 25° C./60% RH) was 81.20 % w/w. For the same compound, the “M6G Assay, Corrected for the salt form” value ([3]; 3 months, 25° C./60% RH) was 98.11 % w/w, the “Total Known” value ([3]; 3 months, 25° C./60% RH) was 1.18% and the “Total Related Substances” value ([3]; 3 months, 25° C./60% RH) was 1.90%. For the same compound, the “Total Unknown” value ([3]; 3 months, 25° C./60% RH) was 0.72%, the “Known Related Substances HN33177” value ([3]; 3 months, 40° C./75% RH) was 0.57% and the “Known Related Substances HN67003” value ([3]; 3 months, 40° C./75% RH) was 1.56%. The “Known Related Substances HN75076” value ([3]; 3 months, 40° C./75% RH) was 0.40%, the “Known Related Substances Morphine” value ([3]; 3 months, 40° C./75% RH) was 0.45% and the “M6G Assay, Anhydrous basis” value ([3]; 3 months, 40° C./75% RH) was 79.38 % w/w. For the same compound, the “M6G Assay, As is basis” value ([3]; 3 months, 40° C./75% RH) was 71.64 % w/w, the “M6G Assay, Corrected for the salt form” value ([3]; 3 months, 40° C./75% RH) was 89.37 % w/w and the “Total Known” value ([3]; 3 months, 40° C./75% RH) was 2.98%. The “Total Related Substances” value ([3]; 3 months, 40° C./75% RH) was 9.07%, the “Total Unknown” value ([3]; 3 months, 40° C./75% RH) was 6.09% and the “drop in assay compared to the initial values” ([3]; 3 months, 40° C./75% RH) was “around 10%”. The “Known Related Substances HN33177” value ([3]; Initial) was 0.77%, the “Known Related Substances HN67003” value ([3]; Initial) was 0.04% and the “Known Related Substances HN75083” value ([3]; Initial) was 0.05%. For the same compound, the “M6G Assay, Anhydrous basis” value ([3]; Initial) was 89.44 % w/w, the “M6G Assay, As is basis” value ([3]; Initial) was 84.11 % w/w and the “M6G Assay, Corrected for the salt form” value ([3]; Initial) was 100.71 % w/w. For the same compound, the “Total Known” value ([3]; Initial) was 0.86%, the “Total Related Substances” value ([3]; Initial) was 0.95% and the “Total Unknown” value ([3]; Initial) was 0.09%. For the same compound, the Colour ([4]; 1 month, 25° C./60% RH) was 0.034 Abs@420 nm, the Colour ([4]; 1 month, 40° C./75% RH) was 0.264 Abs@420 nm and the Colour ([4]; 1 month, 60° C.) was 0.794 Abs@420 nm. It also gave a Colour ([4]; 3 months, 25° C./60% RH) of 0.141 Abs@420 nm, a Colour ([4]; 3 months, 40° C./75% RH) of 1.008 Abs@420 nm and a Colour ([4]; Initial) of 0.016 Abs@420 nm.

Reference: patent US20060166900A1, “Salt of morphine-6-glucuronide” (CeNeS Limited, priority 2002, published 2006)
